For orientation: pKd means the negative decadic logarithm of the Kd, by convention in mol/L.

Among the data in article PMC10206061, “Suxiao Jiuxin Pill attenuates acute myocardial ischemia via regulation of coronary artery tone” (Frontiers in Pharmacology, 2023) are Kd values, retold here.

pKd: −log10 of the molar value. Like-named read-outs stand apart in the source and are kept apart here.

For the test, the target named is T1, Akt1 (Homo sapiens, UniProt P31749).
T1 construct: recombinant human Akt1 protein (1775-KS-010, Bio-Techne)
In words: SPR (Biacore T200, Akt1 amine-coupled on CM5 chip, […] steady-state fit). The format is binding. (In general: SPR reads the build-up and loss of mass on a sensor chip optically.)

T1 sequence (P31749 whole entry): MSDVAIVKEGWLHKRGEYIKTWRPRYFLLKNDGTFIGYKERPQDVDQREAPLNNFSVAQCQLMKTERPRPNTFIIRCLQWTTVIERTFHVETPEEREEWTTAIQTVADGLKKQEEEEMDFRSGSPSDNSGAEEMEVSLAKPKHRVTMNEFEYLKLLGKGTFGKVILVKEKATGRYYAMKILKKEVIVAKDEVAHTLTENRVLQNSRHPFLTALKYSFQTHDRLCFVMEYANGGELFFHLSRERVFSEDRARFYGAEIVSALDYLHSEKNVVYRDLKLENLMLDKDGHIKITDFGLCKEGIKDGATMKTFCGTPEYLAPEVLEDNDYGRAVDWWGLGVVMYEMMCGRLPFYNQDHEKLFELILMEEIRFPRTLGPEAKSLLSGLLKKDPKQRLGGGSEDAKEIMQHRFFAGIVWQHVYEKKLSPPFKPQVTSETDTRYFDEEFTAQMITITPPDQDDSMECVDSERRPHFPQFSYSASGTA

Turning to `COc1cc2ccc(=O)oc2cc1O` [scopoletin], the negative-log Kd (pKd) (read-out: Kd) was 4.96.

`CCCC[C@@H]1OC(=O)C2=C1CCC=C2` [senkyunolide A]: the negative-log Kd (pKd) was 3.12.
